The source of these data is patent publication US7528107B2, “Methods of treating inflammation in mammalian tissues comprising administering human alpha-defensins” (Auburn University, priority 2005, dated 2009).

Format in all cases: cell-based
Assay [1] relates to IL-1β release from human monocytes.
Assay [2] shares this test system. Briefly: ATP mediated proIL-1β / mature IL-1β release from LPS-activated human monocytes (FIG. 2, FIG. 3).
Assay [3] has the same test system. The assay can be described thus: proIL-1β / mature IL-1β release from LPS-activated human monocytes (FIG. 2). Particulars: for mature IL-1β in LPS activated cells / proIL-1β in LPS activated cells: overall statement, no concentration given; for LPS-mediated IL-1β release from human monocytes: summary statement. As to the method:
(§1) Lipopolysaccharide (LPS) activated, ^35S-methionine-labeled human monocytes treated with human α-defensins HNP-1 or HD-5 in the presence and absence of ATP were examined. Media and cell-associated fractions were harvested separately and IL-1β was recovered from each by immunoprecipitation. The resulting immuno-precipitates were analyzed by SDS-PAGE and autoradiography. Referring now to FIG. 2, in the absence of ATP, LPS activated monocytes released about 10% of ^35S-methionine-labeled proIL-1β (31 kDa) into the media, but no mature (17 kDa) IL-1β was detected. As expected, addition of ATP to the LPS-activated monocyte culture led to the release of 90% of newly synthesized proIL-1β from the cell and more than 90% of the proIL-1β was processed to mature IL-1β and detected in the media.
(§2) Peripheral blood monocytes where isolated from healthy volunteers and patients with inflammatory bowel disease and suspended in monocyte maintenance medium (RPMI 1640 medium, 5% FBS 25 mM HEPES and 1% Pen/Strep). Blood samples from healthy volunteers were collected at the Auburn University Medical Clinic under an approved protocol. Blood samples from inflammatory bowel disease patients were provided by Dr. W. Park McGehee of Internal Medicine Associates of Opelika, Ala., U.S.A.
(§3) Monocytes were first primed with lipopolysaccharides (LPS). Monocytes were allowed to adhere for two hours, after which medium supernatants were discarded. Attached cells were rinsed twice with maintenance medium and incubated in 1 ml of maintenance medium overnight at 37° C. in a 5% CO2 environment. The following morning LPS was added to some walls to achieve a final concentration of 10 ng/ml and the cultures were activated for two hours at 37° C. The media was then removed and 1 ml of fresh medium (RPMI 1640 containing 1% FVS 25 mM HEPES and 5 mM NaHCO3) was added to each well. These LPS-activated monocytes where then treated with ATP and subsequently, monocytes were selectively treated with α-defensins for interleukin-1β post transitional processing and release studies.
(§4) Human α-defensin HNP-1 was obtained from Peptide International of Louisville, Ky., U.S.A. Recombinant human α-defensin HD-5 was provided by Dr. Edith Porter of California State University, Los Angeles, U.S.A. The quality of the synthetic peptides were verified by their anti-bacterial activity. Synthetic human α-defensin HNP-1 was further purified by HPLC and compared to the natural HNP-1 by acid-urea PAGE. LPS-activated human monocytes were treated with 0, 1, 10 and 100 micrograms at 37° C. for three hours. It was also treated with 2 mm ATP for IL-1β maturation. Supernatants were then collected after a 5 minute centrifugation in microphage tubes. The concentration of mature IL-1β and the supernatants was quantified by ELISA(R&D Systems). Because the ELISA is reported by the manufacturer to recognize both pro and mature IL-1β species, presence of proIL-1β and mature IL-1β in the supernatant and cell lysates was also determined by western blot analysis. Briefly, proteins were precipitated from the supernatants by addition of trichloroacetic acid (TCA: 7.5% final concentration) and cholic acid (0.1% final concentration) to each sample. The percipate proteins were washed twice with 100% acetone to extract residual TCA and dissolved in 0.1 ml of SDS-PAGE sampled buffer. The cells where then washed once with PBS and lysed into 0.2 ml of lysis washed once with PBS and lysed into 0.2 ml of lysis buffer (25 mM HEPES 300 mM NaCl 1.5 mM MgCl2, 0.2 mM EDTA, 1% triton X-100, 2 mg/ml leupeptin and 10 mg/ml PMF). Cell lysates and TSA precipitated proteins from the supernatants where then subjected to 12% SDS-PAGE gels and then transferred to PVDV membranes for western blot analysis. IL-1β was probed with goat anti-IL-1β antibody and detected with the rabbit anti-goat IgG-horesradish peroxidase conjugate.

Assay [4] shares this test system. The assay can be described thus: ATP mediated proIL-1β / mature IL-1β release from LPS-activated human monocytes (FIG. 2, FIG. 3). Particulars: for processing of proIL-1β after it is released extracellularly: LPS-activated human monocytes treated with ATP, then α-defensins; for ATP-mediated IL-1β release from human monocytes: summary statement. As to the method: as §1, §2, §3
as §4, with “conjugate. […]” for “conjugate.”

[5] abbreviates: FIG. 3 columns 5 and 6, 20 and 100 μg/ml of HD-1, 1 mM ATP, 3 hours.
Setting [6] is: overall statement, no concentration given.
Where [7] appears, read: physiological concentrations of 5 ug to 100 ug/ml.
Where [8] appears, read: FIG. 2 column 3, 20 ng/ml LPS + ATP + YVAD-CMK 100 μM.
[9] abbreviates: FIG. 3 columns 2-4, 20-100 μg/ml of HNP-1, 1 mM ATP, 3 hours.
[10] abbreviates: FIG. 2 column 7, 10 ng/ml LPS 2 hours.
Setting [11] is: FIG. 2 columns 8 and 9, increase of 20-50 mg HNP-1.
Where [12] appears, read: addition of ATP to the LPS-activated monocyte culture, 35S-methionine label.

“Also recorded” adds a separate entry of the source.

Consider “human α-defensin 5 (ATCYCRTGRCATRESLSGVCEISGRLYRLCCR; ALPHA DEFENSIN HD-5; listed as Homo sapiens) [Recombinant human α-defensin produced by Paneth cells]”, for which, in assay [1], the “Staphylococcus aureus alpha-toxin-mediated IL-1β release from human monocytes” value was “blocks”. In addition, in assay [2] (setting [5]), the “mature IL-1β from ATP activated human monocytes” value was “inhibited in a dose dependant manner” and the “proIL-1β release from ATP activated human monocytes” value was “no proIL-1β is released”. The “release of proIL-1β from the LPS-activated monocyte culture” value in assay [3] (10 ug/ml of HD-5, FIG. 2) is listed as “completely blocked”. Further, in assay [3] (FIG. 2 columns 4, 5, 6, increasing amount of HD-5, 4 million cell equivalents activated with LPS), the “proIL-1β expressed (western blot)” value is “no proIL-1β”. Further, in assay [3], the “mature IL-1β in LPS activated cells” value is listed as “substantially completely block”, the “proIL-1β in LPS activated cells” value was “inhibit; also recorded: substantially completely block” and the “LPS-mediated IL-1β release from human monocytes” value is “blocks”. For the same compound, in assay [4], the “processing of proIL-1β after it is released extracellularly” value was “does not appear to affect” and the “ATP-mediated IL-1β release from human monocytes” value is “blocks”. Moreover, the “ATP mediated proIL-1β release” value in assay [4] (setting [6]) is reported as “blocked in a dose dependant manner; also recorded: block ATP mediated proIL-1β release in a dose dependant manner”. Moreover, the “ATP mediated proIL-1β release” value in assay [4] (setting [7]) is “blocked ATP mediated proIL-1β release in a dose dependant manner”.

On to `CC(=O)N[C@@H](Cc1ccc(O)cc1)C(=O)N[C@H](C(=O)N[C@@H](C)C(=O)N[C@@H](CC(=O)O)C(=O)CCl)C(C)C` [YVAD-CMK, reference compound], for which, in assay [2] (setting [8]), the “mature IL-1β produced (western blot)” value is recorded as “no mature IL-1β proteins” and the “proIL-1β produced (western blot)” value was “substantial amount of proIL-1β”.

For human neutrophil defensin 1 [HNP-1], in assay [1], the “Staphylococcus aureus alpha-toxin-mediated IL-1β release from human monocytes” value is listed as “blocks”. Moreover, in assay [2] (setting [9]), the “mature IL-1β from ATP activated cells” value is on record as “inhibited in a dose dependant manner” and the “proIL-1β release from ATP activated cells” value is recorded as “no proIL-1β is released”. For the same compound, the proIL-1β production result in assay [3] (20 ug/ml of HNP-1, FIG. 2) was “sufficient to block”. For the same compound, in assay [3] (setting [10]), the “mature IL-1β (western blot)” value is reported as “no mature IL-1β” and the “proIL-1β (western blot)” value was “some proIL-1β”. Also, in assay [3] (setting [11]), the “mature IL-1β (western blot)” value is “no mature IL-1β proteins were produced” and the “proIL-1β (western blot)” value was “no proIL-1β”. For the same compound, in assay [3], the “mature IL-1β in LPS activated cells” value is “substantially completely block”, the “proIL-1β in LPS activated cells” value is on record as “inhibit; also recorded: substantially completely block” and the “LPS-mediated IL-1β release from human monocytes” value is given as “blocks”. Moreover, in assay [4], the “processing of proIL-1β after it is released extracellularly” value is “does not appear to affect” and the “ATP-mediated IL-1β release from human monocytes” value was “blocks”. Further, the “ATP mediated proIL-1β release” value in assay [4] (setting [6]) is on record as “blocked in a dose dependant manner; also recorded: block ATP mediated proIL-1β release in a dose dependant manner”. Besides, the “ATP mediated proIL-1β release” value in assay [4] (setting [7]) is “blocked ATP mediated proIL-1β release in a dose dependant manner”.

For the compound `Nc1ncnc2c1ncn2[C@@H]1O[C@H](COP(=O)(O)OP(=O)(O)OP(=O)(O)O)[C@@H](O)[C@H]1O` [ATP, Adenosine triphosphate, reference compound], in assay [4] (setting [12]), the “proIL-1β processed to mature IL-1β and detected in the media” value was “more than 90%”; the “release of newly synthesized proIL-1β from the cell” value was determined as 90%.
